Data reported in US7868026B2, “Therapeutic compounds” (Pfizer Inc., priority 2005, dated 2011).
Read-outs that look alike come from different tables or passages of the source.

What was measured:
Assay type in all cases: biochemical
CYP3A4 [1] = molecular target: T1, CYP3A4 (Homo sapiens, UniProt P08684); test: Determination of IC50 against CYP3A4 by measurement of inhibition of testosterone metabolism (human liver microsomes, 6-β-OH-testosterone by LC-MS/MS); design: 0.1 mg/mL human liver microsomes; details: read-out: IC50 (Testo.)
Description: 2. Determination of IC50 Against CYP3A4 by Measurement of Inhibition of Testosterone Metabolism
This assay was performed using a standard 96 well plate design. […] The incubation substrate mix contains 25 μM testosterone, 0.1 mg/mL human liver microsomes, 1 mM NADPH, and potassium phosphate buffer (100 mM, pH 7.4). Quantitation of metabolite peak area ratio against an internal standard is determined by LC-MS/MS analysis. The production of 6-β-OH-testosterone from testosterone metabolism is determined after incubation for eight minutes by comparison to a standard curve generated for the metabolite
Samples were analyzed in the MRM mode using a Sciex API 3000 mass spectrometer (Applied Biosystems, Foster City, Calif.) with a Paradigm MS4 binary pump (Michrom BioResources Inc., Auburn, Calif.) and a LEAP CTC PAL autosampler (LEAP Technologies, Carrboro, N.C.). A Phenomenex Synergi, 4μ, Polar-RP, 10×2.0 mm column (Phenomenex, Torrance, Calif.) was used for separation with a mobile phase composition of: 0.1% formic acid in water (A) and: 0.1% formic acid in methanol (B). The following gradient was used: […]
The sample injection volume was 10 μL and flow was split post-column with 0.4 mL/min going to the mass spectrometer. Analysis was performed using the following API 3000 mass spectrometer settings: […]

CYP3A4 [2] = molecular target: T1, CYP3A4; test: Determination of IC50 against CYP3A4 by measurement of inhibition of midazolam metabolism (human liver microsomes, 1-hydroxymidazolam by LC-MS/MS); design: 0.1 mg/mL human liver microsomes; details: 2 μM midazolam, 0.1 mg/mL human liver microsomes
How it was run: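 Human liver microsomes (0.1 mg/mL) incubated 8 min with 2 μM midazolam and 1 mM NADPH in 100 mM potassium phosphate, pH 7.4. 1-Hydroxymidazolam quantified by LC-MS/MS (MRM) as peak area ratio to internal standard against a metabolite standard curve.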

CYP3A4 [3] = molecular target: T1, CYP3A4; test: Determination of compound Kiapp against recombinant CYP3A4 enzyme (BFC fluorescent substrate)
How it was run: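 Recombinant CYP3A4 (5.5 or 8 nM, with or without b5 depending on source) pre-incubated with inhibitor ≥30 min at room temperature in 100 mM sodium phosphate pH 7.0, 5 mM TCEP, 2% DMF. Reaction started with 200 uM NADPH and 5 uM BFC; initial fluorescence rates over 5 min fitted to Morrison tight-binding (non-partial) or Szedlacsek (partial) equations for Kiapp.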

[4] = Baculo. enzyme preparation, read-out: Kiapp (BFC, Baculo.)
[5] = Super. enzyme preparation, read-out: Kiapp (BFC, Super.)

T1 sequence (P08684 whole entry): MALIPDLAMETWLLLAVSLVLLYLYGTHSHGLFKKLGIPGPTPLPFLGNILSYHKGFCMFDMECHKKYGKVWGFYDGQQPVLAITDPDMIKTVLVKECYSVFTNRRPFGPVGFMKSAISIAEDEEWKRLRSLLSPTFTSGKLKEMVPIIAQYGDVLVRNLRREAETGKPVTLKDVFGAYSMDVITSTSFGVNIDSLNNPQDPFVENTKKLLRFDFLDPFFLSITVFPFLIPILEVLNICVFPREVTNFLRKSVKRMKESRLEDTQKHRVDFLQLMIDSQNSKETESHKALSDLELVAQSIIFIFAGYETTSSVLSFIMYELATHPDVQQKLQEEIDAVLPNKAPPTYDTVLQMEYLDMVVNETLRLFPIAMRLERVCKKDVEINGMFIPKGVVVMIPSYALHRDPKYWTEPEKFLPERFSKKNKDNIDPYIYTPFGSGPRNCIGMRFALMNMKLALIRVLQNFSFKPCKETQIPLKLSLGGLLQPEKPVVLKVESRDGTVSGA

| SMILES | IC50 (CYP3A4 [1]) | IC50 (CYP3A4 [2]) | Ki (CYP3A4 [3]; [4]) | Ki (CYP3A4 [3]; [5]) |
| --- | --- | --- | --- | --- |
| O=C(NC1Cc2ccccc2C1)c1ccccc1S(=O)(=O)Nc1cccnc1 [Example 58, N-(2,3-dihydro-1H-inden-2-yl)-2-[(pyridin-3-ylamino)sulfonyl]benzamide] | 25.3 nM | 26.5 nM | 150 nM | 9.1 nM |
| CCCCOCCCNC(=O)c1ccccc1S(=O)(=O)Nc1cccnc1 [Example 59, N-(3-butoxypropyl)-2-[(pyridin-3-ylamino)sulfonyl]benzamide] | 117 nM | 109 nM | 838 nM | 57.4 nM |
| COc1cccc(CCNC(=O)c2ccccc2S(=O)(=O)Nc2cccnc2)c1 [Example 60, N-[2-(3-methoxyphenyl)ethyl]-2-[(pyridin-3-ylamino)sulfonyl]benzamide] | 24 nM | 17 nM | 151 nM | – |
| CCCCCNC(=O)c1ccccc1S(=O)(=O)Nc1cccnc1 [Example 61, N-pentyl-2-[(pyridin-3-ylamino)sulfonyl]benzamide] | 30.2 nM | 26.8 nM | 131 nM | 7.7 nM |
| O=C(c1ccccc1S(=O)(=O)Nc1cccnc1)N1CCN(c2ccccn2)CC1 [Example 62, N-pyridin-3-yl-2-[(4-pyridin-2-ylpiperazin-1-yl)carbonyl]benzenesulfonamide] | 211 nM | 184 nM | > 1000 nM | 83.3 nM |
| CCCCNC(=O)c1ccccc1S(=O)(=O)Nc1cccnc1 [Example 63, N-butyl-2-[(pyridin-3-ylamino)sulfonyl]benzamide] | 84.1 nM | 84.2 nM | 449 nM | 42.4 nM |
| O=C(NCC1CCCC1)c1ccccc1S(=O)(=O)Nc1cccnc1 [Example 64, N-(cyclopentylmethyl)-2-[(pyridin-3-ylamino)sulfonyl]benzamide] | 31.8 nM | 30.5 nM | 190 nM | 12.8 nM |
| O=C(NC1CCC1)c1ccccc1S(=O)(=O)Nc1cccnc1 [Example 65, N-cyclobutyl-2-[(pyridin-3-ylamino)sulfonyl]benzamide] | 214 nM | 254 nM | 920 nM | – |
| O=C(NCCc1ccccn1)c1ccccc1S(=O)(=O)Nc1cccnc1 [Example 66, 2-[(pyridin-3-ylamino)sulfonyl]-N-(2-pyridin-2-ylethyl)benzamide] | 302 nM | 146 nM | > 1000 nM | 210 nM |
| O=C(c1ccccc1S(=O)(=O)Nc1cccnc1)N1CCCCC1 [Example 67, 2-(piperidin-1-ylcarbonyl)-N-pyridin-3-ylbenzenesulfonamide] | 247 nM | 110 nM | 844 nM | 62 nM |
| CN(CCc1ccccc1)C(=O)c1ccccc1S(=O)(=O)Nc1cccnc1 [Example 68, N-methyl-N-(2-phenylethyl)-2-[(pyridin-3-ylamino)sulfonyl]benzamide] | 36 nM | 17 nM | 116 nM | – |
| O=C(NCCCc1ccccn1)c1ccccc1S(=O)(=O)Nc1cccnc1 [Example 69, 2-[(pyridin-3-ylamino)sulfonyl]-N-(3-pyridin-2-ylpropyl)benzamide] | 179 nM | 105 nM | > 1000 nM | – |
| O=C(NCc1cccc(OC(F)F)c1)c1ccccc1S(=O)(=O)Nc1cccnc1 [Example 71, N-[3-(difluoromethoxy)benzyl]-2-[(pyridin-3-ylamino)sulfonyl]benzamide] | < 3 nM | 29 nM | 245 nM | 5.1 nM |
| CCOc1ccccc1CNC(=O)c1ccccc1S(=O)(=O)Nc1cccnc1 [Example 72, N-(2-ethoxybenzyl)-2-[(pyridin-3-ylamino)sulfonyl]benzamide] | < 3 nM | 27 nM | 164 nM | 12.9 nM |
| CN(Cc1ccccc1F)C(=O)c1ccccc1S(=O)(=O)Nc1cccnc1 [Example 73, N-(2-fluorobenzyl)-N-methyl-2-[(pyridin-3-ylamino)sulfonyl]benzamide] | < 3 nM | 38 nM | 124 nM | 10.7 nM |
| Cc1ccccc1CNC(=O)c1ccccc1S(=O)(=O)Nc1cccnc1 [Example 74, N-(2-methylbenzyl)-2-[(pyridin-3-ylamino)sulfonyl]benzamide] | < 3 nM | 23 nM | 174 nM | 4.8 nM |
| Cc1ccccc1CCNC(=O)c1ccccc1S(=O)(=O)Nc1cccnc1 [Example 75, N-[2-(2-methylphenyl)ethyl]-2-[(pyridin-3-ylamino)sulfonyl]benzamide] | 13 nM | 16 nM | 43 nM | 2.4 nM |
| Cc1cccc(CCNC(=O)c2ccccc2S(=O)(=O)Nc2cccnc2)c1 [Example 76, N-[2-(3-methylphenyl)ethyl]-2-[(pyridin-3-ylamino)sulfonyl]benzamide] | 29 nM | 24 nM | 76.7 nM | 9.4 nM |
| O=C(NCCc1ccccc1)c1ccccc1S(=O)(=O)Nc1cccnc1 [Example 77, N-(2-phenylethyl)-2-[(pyridin-3-ylamino)sulfonyl]benzamide] | 192 nM | 23 nM | 131 nM | 5.6 nM |
| CCN(Cc1ccccc1)C(=O)c1ccccc1S(=O)(=O)Nc1cccnc1 [Example 78, N-benzyl-N-ethyl-2-[(pyridin-3-ylamino)sulfonyl]benzamide] | > 750 nM | 22 nM | 158 nM | 13.8 nM |
| Cc1ccc(CNC(=O)c2ccccc2S(=O)(=O)Nc2cccnc2)cc1 [Example 79, N-(4-methylbenzyl)-2-[(pyridin-3-ylamino)sulfonyl]benzamide] | 177 nM | 30 nM | 144 nM | 26.2 nM |
| Cc1cccc(CNC(=O)c2ccccc2S(=O)(=O)Nc2cccnc2)c1 [Example 80, N-(3-methylbenzyl)-2-[(pyridin-3-ylamino)sulfonyl]benzamide] | 71 nM | 25 nM | 206 nM | 4.1 nM |
| CNC(=O)c1ccc(CNC(=O)c2ccccc2S(=O)(=O)Nc2cccnc2)cc1 [Example 81, N-{4-[(methylamino)carbonyl]benzyl}-2-[(pyridin-3-ylamino)sulfonyl]benzamide] | < 3 nM | 501 nM | > 1000 nM | 276 nM |
| O=C(NCc1ccc2c(c1)CCO2)c1ccccc1S(=O)(=O)Nc1cccnc1 [Example 82, N-(2,3-dihydro-1-benzofuran-5-ylmethyl)-2-[(pyridin-3-ylamino)sulfonyl]benzamide] | 25 nM | 28 nM | 743 nM | 20.9 nM |
| O=C(c1ccccc1S(=O)(=O)Nc1cccnc1)N1CCc2ccccc2C1 [Example 83, 2-(3,4-dihydroisoquinolin-2(1H)-ylcarbonyl)-N-pyridin-3-ylbenzenesulfonamide] | 28 nM | 35 nM | 127 nM | 12.8 nM |
| CN(C)Cc1ccc(CNC(=O)c2ccccc2S(=O)(=O)Nc2cccnc2)cc1 [Example 84, N-{4-[(dimethylamino)methyl]benzyl}-2-[(pyridin-3-ylamino)sulfonyl]benzamide] | 28 nM | > 750 nM | > 1000 nM | 464 nM |
| O=C(NCc1ccc(F)c(F)c1)c1ccccc1S(=O)(=O)Nc1cccnc1 [Example 85, N-(3,4-difluorobenzyl)-2-[(pyridin-3-ylamino)sulfonyl]benzamide] | 41 nM | 16 nM | 105 nM | 12.1 nM |
| CC(C)(O)c1ccc(CNC(=O)c2ccccc2S(=O)(=O)Nc2cccnc2)cc1 [Example 86, N-[4-(1-hydroxy-1-methylethyl)benzyl]-2-[(pyridin-3-ylamino)sulfonyl]benzamide] | 27 nM | 118 nM | > 1000 nM | 209 nM |
| O=C(NCc1cccc(F)c1F)c1ccccc1S(=O)(=O)Nc1cccnc1 [Example 87, N-(2,3-difluorobenzyl)-2-[(pyridin-3-ylamino)sulfonyl]benzamide] | 10 nM | 30 nM | 90 nM | 6.3 nM |
| O=C(c1ccccc1S(=O)(=O)Nc1cccnc1)N1Cc2ccccc2C1 [Example 88, 2-(1,3-dihydro-2H-isoindol-2-ylcarbonyl)-N-pyridin-3-ylbenzenesulfonamide] | 28 nM | 185 nM | 362 nM | 47.6 nM |
